# From patent US12697326B2, “Methods of treating hepatic encephalopathy” (SALIX PHARMACEUTICALS, INC., priority 2008, dated 2026)
# System: breakthrough HE episode in subjects with hepatic encephalopathy (HE)
# Experiment: Time to first breakthrough (overt) HE episode, first study, rifaximin vs placebo
# Type: in vivo, human
# Conditions: for Cumulative number of events / Number of events / Probability of no breakthrough overt HE (Kaplan-Meier event-free estimate): ITT, first breakthrough overt HE
# Excerpt: An increase in the Conn score of greater than or equal to grade 2 was considered as a breakthrough HE episode.
# An efficacy endpoint was the time to first breakthrough overt HE episode. A breakthrough overt HE episode was defined as an increase of Conn score to Grade ≥2 (e.g., 0) or 1 to ≥2) or an increase in Conn and asterixis score of 1 grade each for those subjects who entered the study with a Conn score of 0. Time to breakthrough overt HE episode was the duration from time of first dose of study drug to the first breakthrough overt HE episode. […] Subjects who terminated early for reasons other than breakthrough overt HE were contacted at 6 months from randomization to determine if subjects had experienced a breakthrough overt HE episode or other outcome (e.g., mortality status); and, if the subject had no breakthrough overt HE event prior to contact, he/she was censored at the time of contact. […] Subjects in the study had ≥2 episodes of overt HE equivalent to Conn score ≥2 within 6 months prior to screening (i.e., subjects had documented recurrent, overt HE). At the baseline assessment, subjects were in remission with a Conn score of 0 or 1. A breakthrough overt HE episode, as defined above, was a marked deterioration in neurological function.
# Presented herein are the results of the first study and second study. […] The primary efficacy endpoint was the time to breakthrough overt HE. Breakthrough overt HE was defined as an increase of Conn score to Grade ≥2 (e.g., 0 or 1 to ≥2) or an increase in Conn and asterixis score of 1 grade each for those subjects who entered the study with a Conn score of 0. Subjects discontinued from the study at the time of breakthrough overt HE episode. After participation in the first study, subjects had the option to enroll in the open-label, treatment-extension study (the second study).
# FIG. 1 illustrates Kaplan-Meier estimates of time to first breakthrough overt HE episode by treatment group in the ITT population. Table 18 presents Kaplan-Meier estimates of the proportions of subjects who experienced breakthrough overt HE over the course of the Treatment Period and results of statistical analyses. […] Subjects who terminated early for reasons other than breakthrough overt HE (eg, liver transplant, AE, subject request) were contacted at 6 months from date of randomization to determine if subjects had experienced a breakthrough overt HE episode or other outcome (e.g., mortality status). Subjects without breakthrough overt HE were censored at the time of contact or death, whichever was earlier.
# [1] = breakthrough HE episode by prior lactulose use; 550 mg BID; N = 123; Days [0-28)
# [2] = breakthrough HE episode by prior lactulose use; 550 mg BID; N = 123; Days [28-56)
# [3] = breakthrough HE episode by prior lactulose use; 550 mg BID; N = 123; Days [56-84)
# [4] = breakthrough HE episode by prior lactulose use; 550 mg BID; N = 123; Days [84-140)
# [5] = breakthrough HE episode by prior lactulose use; 550 mg BID; N = 123; Days [140-168)
# [6] = breakthrough HE episode by prior lactulose use, 550 mg BID, N = 127, Days >=168
# [7] = breakthrough HE episode by prior lactulose use; 550 mg BID; N = 127; Days [0-28)
# [8] = breakthrough HE episode by prior lactulose use, 550 mg BID, N = 127, Days [28-56]
# [9] = breakthrough HE episode by prior lactulose use, 550 mg BID, N = 127, Days [56-84]
# [10] = breakthrough HE episode by prior lactulose use; 550 mg BID; N = 127; Days [84-140)
# [11] = breakthrough HE episode by prior lactulose use; 550 mg BID; N = 127; Days [140-168)
# [12] = breakthrough HE episode, 550 mg BID, N = 140, Days >=168
# [13] = breakthrough HE episode; 550 mg BID; N = 140; Days [0-28)
# [14] = breakthrough HE episode; 550 mg BID; N = 140; Days [28-56)
# [15] = breakthrough HE episode; 550 mg BID; N = 140; Days [56-84)
# [16] = breakthrough HE episode; 550 mg BID; N = 140; Days [84-140)
# [17] = breakthrough HE episode; 550 mg BID; N = 140; Days [140-168)
# [18] = first study, N = 140, treatment interval 0 to <28 days
# [19] = first study, N = 140, treatment interval 28 to 56 days
# [20] = first study, N = 140, treatment interval 56 to <84 days
# [21] = first study, N = 140, treatment interval 84 to <149 days
# [22] = first study, N = 140, treatment interval 140 to <168 days
# [23] = first study, N = 140, treatment interval ≥168 days
smiles,measurement,setting,value
CO[C@H]1/C=C/O[C@@]2(C)Oc3c(C)c(O)c4c(O)c(c5c(nc6cc(C)ccn65)c4c3C2=O)NC(=O)/C(C)=C\C=C\[C@H](C)[C@H](O)[C@@H](C)[C@@H](O)[C@@H](C)[C@H](OC(C)=O)[C@@H]1C [Rifaximin],Occurrences of Events,[1],12
same,Survival,[1],1.0000
same,Cumulative Occurrences of Events,[2],16
same,Occurrences of Events,[2],4
same,Survival,[2],0.9024
same,Cumulative Occurrences of Events,[3],21
same,Occurrences of Events,[3],5
same,Survival,[3],0.8696
same,Cumulative Occurrences of Events,[4],28
same,Occurrences of Events,[4],7
same,Survival,[4],0.8278
same,Cumulative Occurrences of Events,[5],29
same,Occurrences of Events,[5],1
same,Survival,[5],0.7678
same,Cumulative Occurrences of Events,[6],29
same,Occurrences of Events,[6],0
same,Survival,[6],0.7666
same,Cumulative Occurrences of Events,[7],12
same,Occurrences of Events,[7],12
same,Survival,[7],1.0000
same,Cumulative Occurrences of Events,[8],16
same,Occurrences of Events,[8],4
same,Survival,[8],0.9055
same,Cumulative Occurrences of Events,[9],22
same,Occurrences of Events,[9],6
same,Survival,[9],0.8737
same,Cumulative Occurrences of Events,[10],28
same,Occurrences of Events,[10],6
same,Survival,[10],0.8252
same,Cumulative Occurrences of Events,[11],25
same,Occurrences of Events,[11],1
same,Survival,[11],0.7754
same,Cumulative Occurrences of Events,[12],31
same,Occurrences of Events,[12],0
same,Survival,[12],0.7740
same,Cumulative Occurrences of Events,[13],13
same,Occurrences of Events,[13],13
same,Survival,[13],1.0000
same,Cumulative Occurrences of Events,[14],17
same,Occurrences of Events,[14],4
same,Survival,[14],0.9071
same,Cumulative Occurrences of Events,[15],23
same,Occurrences of Events,[15],6
same,Survival,[15],0.8783
same,Cumulative Occurrences of Events,[16],30
same,Occurrences of Events,[16],7
same,Survival,[16],0.8344
same,Cumulative Occurrences of Events,[17],31
same,Occurrences of Events,[17],1
same,Survival,[17],0.7820
same,"reduction, compared with placebo, in the risk of a breakthrough overt HE episode after adjusting for prognostic factors",first study,60%
same,Cumulative number of events,[18],13
same,Number of events,[18],13
same,Probability of no breakthrough overt HE (Kaplan-Meier event-free estimate),[18],1.0000
same,Cumulative number of events,[19],17
same,Number of events,[19],4
same,Probability of no breakthrough overt HE (Kaplan-Meier event-free estimate),[19],0.9071
same,Cumulative number of events,[20],23
same,Number of events,[20],6
same,Probability of no breakthrough overt HE (Kaplan-Meier event-free estimate),[20],0.8783
same,Cumulative number of events,[21],30
same,Number of events,[21],7
same,Probability of no breakthrough overt HE (Kaplan-Meier event-free estimate),[21],0.8344
same,Cumulative number of events,[22],31
same,Number of events,[22],1
same,Probability of no breakthrough overt HE (Kaplan-Meier event-free estimate),[22],0.7820
same,Cumulative number of events,[23],31
same,Number of events,[23],0
same,Probability of no breakthrough overt HE (Kaplan-Meier event-free estimate),[23],0.7740
same,proportion of subjects with breakthrough overt HE,"first study, rifaximin group",22%
same,subjects who experienced breakthrough overt HE episodes (of 140),"first study, rifaximin group, 6-month period, up to Day 170",31
same,"time to breakthrough HE event vs placebo (FIG. 2, Kaplan Meier)",in vivo,increased time to breakthrough HE events
